Where a name gives a salt, the structure may show the parent alone. Read-outs that look alike come from different tables or passages of the source.
Experiments:
[1] = test system: tetrabenazine-induced sedation and depression in mice; assay: Antagonism of tetrabenazine-induced depression in mice, orally; format: in vivo, female white mice (Carworth CF1 S); details: oral, 1 hr post drug, 30 minutes after tetrabenazine 32 mg/kg intraperitoneally, female mice; for ED50: Mus musculus, read-out: ED50 for prevention of ptosis
Method: Relief from ptosis was recorded when exactly two seconds after placing the mouse facing the observer, lid closure was less than 50% in both eyes.

[2] = test system: tetrabenazine-induced sedation and depression in mice; assay: as above; format: in vivo, female white mice (Carworth CF1 S); details: oral, 1 hr post drug, 30 minutes after tetrabenazine 32 mg/kg intraperitoneally, female mice; for ED50: Mus musculus, read-out: ED50 for prevention of exploratory loss
[3] = background statement, no test described; cited from earlier work

| Compound | ED50 for prevention of ptosis [1] | ED50 for prevention of exploratory loss [2] [mg/kg] | ED50 [1] [mg/kg] | ED50 [2] [mg/kg] | side effects [3] |
| --- | --- | --- | --- | --- | --- |
| (±)6,10-dichloro-1,2,3,4,4a,5,10,10a-octahydro-2-methyl-5,10-o-benzenobenz[g]isoquinoline hydrochloride [R=CH3, R1=H, R2=H, R3=6-Cl, R4=10-Cl] | 12.2 mg/kg | 22 |  |  |  |
| (±)7-(or: -8-)-chloro-1,2,3,4,4a,5,10,10a-octahydro-5,10-o-benzenobenz[g]isoquinoline hydrochloride [R=H, R1=H, R2=H, R3=7 or 8-Cl, R4=H] | 1.4 mg/kg | 1.7 |  |  |  |
| c1ccc(OCCN2CCC3C4c5ccccc5C(c5ccccc54)C3C2)cc1 (centres unmarked) |  |  | 10.8 | 27 |  |
| CC(O)CCN1CCC2C3c4ccccc4C(c4ccccc43)C2C1 (centres unmarked) |  |  | 4.9 | 5.6 |  |
| CN(C)CCCN1c2ccccc2CCc2ccccc21 [Imipramine] |  |  |  |  | may cause blurred vision, dryness of mouth, constipation, urinary retention, orthostatic hypotension, respiration depression, myocardial infarction and congestive heart failure |
| (±)1,2,3,4,4a,5,10,10a-octahydro-5-(or: -10)-methyl-5,10-o-benzobenz[g]isoquinoline hydrochloride [R=H, R1=CH3 (H), R2=H(CH3), R3=H, R4=H] | 22 mg/kg | 38 |  |  |  |
| O=C(O)CCN1CCC2C3c4ccccc4C(c4ccccc43)C2C1 (racemic) [R=CH2 CH2 COOH, R1=H, R2=H, R3=H, R4=H, (±)1,2,3,4,4a,5,10,10a-Octahydro-5,10-o-benzenobenz[g]isoquinoline-2-propionic Acid Hydrochloride] |  |  | 15 | 27 |  |
| (±)7-(or: -8-)chloro-1,2,3,4,4a,5,10,10a-octahydro-2-methyl-5,10-o-benzenobenz[g]isoquinoline hydrochloride hemihydrate [R=CH3, R1=H, R2=H, R3=7 or 8-Cl, R4=H] | 3.4 mg/kg | 4.5 |  |  |  |
| (±)1,2,3,4,4a,-5,10,10a-octahydro-2,5-dimethyl-5,10-o-benzenobenz[g]isoquinoline or (±)1,2,3,4,4a,5,10,10a-octahydro-2,10-dimethyl-5,10-o-benzenobenz[g]isoquinoline [R=CH3, R1=CH3 (H), R2=H(CH3), R3=H, R4=H] | 21 mg/kg | 27 |  |  |  |
| (±)6-(or: -9-)chloro-1,2,3,4,4a,10,10a-octahydro-5,10-o-benzenobenz[g]isoquinoline hydrochloride [R=H, R1=H, R2=H, R3=6 or 9-Cl, R4=H] | 2.2 mg/kg | 2.5 |  |  |  |
| CCCCN1CCC2C3c4ccccc4C(c4ccccc43)C2C1 (racemic) [(±)2-(1-butyl)-1,2,3,4,4a,5,10,10a-Octahydro-5,10-o-benzenobenz[g]isoquinoline Maleate] |  |  | 11.2 | 19 |  |
| (±)6-(or: -9-)-chloro-1,2,3,4,4a,5,10,10a-octahydro-2-methyl-5,10-o-benzenobenz[g]isoquinoline hydrochloride [R=CH3, R1=H, R2=H, R3=6 or 9-Cl, R4=H] | 1.3 mg/kg | 1.4 |  |  |  |
| CCOC(=O)N1CCC2C3c4ccccc4C(c4ccccc43)C2C1 (racemic) [R=COOC2 H5, R1=H, R2=H, R3=H, R4=H, (±)1,2,3,4,4a,5,10,10a-Octahydro-5,10-o-benzenobenz[g]isoquinoline-2-carboxylic Acid, Ethyl Ester] |  |  | 2.1 | 5.4 |  |
| c1ccc(C(CN2CCC3C4c5ccccc5C(c5ccccc54)C3C2)c2ccccc2)cc1 (racemic) [R=CH2 CH(C6 H5)2, R1=H, R2=H, R3=H, R4=H, (±)1,2,3,4,4a,5,10,10a-octahydro-2-(2,2-diphenylethyl)-5,10-o-benzenobenz[g]isoquinoline hydrochloride] |  |  | 12 | 47 |  |
| c1ccc(CCN2CCC3C4c5ccccc5C(c5ccccc54)C3C2)cc1 (racemic) [R=CH2 CH2 C6 H5, R1=H, R2=H, R3=H, R4=H, (±)1,2,3,4,4a,5,10,10a-octahydro-2-phenethyl-5,10-o-benzenobenz[g]isoquinoline, hydrochloride hemihydrate] |  |  | 11.8 | 13.6 |  |
| CCOC(=O)CCN1CCC2C3c4ccccc4C(c4ccccc43)C2C1 (racemic) [(±)1,2,3,4,4a,5,10,10a-octahydro-5,10-o-benzenobenz[g]isoquinoline-2-propionic acid ethyl ester] |  |  | 8.1 | 20 |  |
| (±)7-(or: -8-)-fluoro-1,2,3,4,4a,5,10,10a-octahydro-5,10-o-benzenobenz[g]isoquinoline hydrochloride [R=H, R1=H, R2=H, R3=7 or 8-F, R4=H] | .58 mg/kg | 1.7 |  |  |  |
| CC(=O)CCN1CCC2C3c4ccccc4C(c4ccccc43)C2C1 (racemic) [R=CH2 CH2 COCH3, R1=H, R2=H, R3=H, R4=H, (±)4-(1,2,3,4,4a,5,10,10a-Octahydro-5,10-o-benzenobenz[g]isoquinoline-2-yl)-2-butanone Maleate] |  |  | 2.1 | 4.4 |  |
| c1ccc2c(c1)C1c3ccccc3C2C2CNCCC12 (racemic) [R=H, R1=H, R2=H, R3=H, R4=H, (±)1,2,3,4,4a,5,10,10a-Octahydro-5,10-o-benzenobenz[g]isoquinoline Hydrochloride] |  |  | 0.41 | 1.5 |  |
| (±)7-(or: -8-)fluoro-1,2,3,4,4a,5,10,10a-octahydro-2-methyl-5,10-o-benzenobenz[g]isoquinoline hydrochloride [R=CH3, R1=H, R2=H, R3=7 or 8-F, R4=H] | 2.0 mg/kg | 2.7 |  |  |  |
| (±)1,2,3,4,4a,5,10,10a-octahydro-7-(or: -8-)methyl-5,10-o-benzenobenz[g]isoquinoline hydrochloride [R=H, R1=H, R2=H, R3=7 or 8-CH3, R4=H] | .94 mg/kg | 4.8 |  |  |  |
| CN(C)CCC=C1c2ccccc2CCc2ccccc21 [Amitriptyline, reference compound] |  |  | 1 | 1.2 |  |
| (±)2-(1-adamantylmethyl)-1,2,3,4,4a,5,10,10a-octahydro-5,10-o-benzenobenz[g]isoquinoline, hydrochloride hemihydrate [R=1-adamantyl, R1=H, R2=H, R3=H, R4=H] | 24 mg/kg | 41 |  |  |  |
| CN1CCC2C3c4ccccc4C(c4ccccc43)C2C1 (racemic) [R=CH3, R1=H, R2=H, R3=H, R4=H, (±)1,2,3,4,4a,5,10,10a-Octrahydro-2-methyl-5,10-o-benzenobenz[g]isoquinoline Hydrochloride] |  |  | 1 | 6 |  |

Source: patent US4351836A, “1,2,3,4,4a,5,10,10a-Octahydro-5,10-ortho-benzenobenz[g]isoquinolines and antidepressant use thereof” (E. I. Du Pont de Nemours and Company, priority 1980, dated 1982)
